Measurements published in ChEMBL document CHEMBL1146379, “Solid phase synthesis and SAR of small molecule agonists for the GPR40 receptor” (Bioorg Med Chem Lett, 2007).
Values after ≈ are worked out from the molar mass of the structure shown.

Legend:
[1] = target: T1, Free fatty acid receptor 1 (Homo sapiens, UniProt O14842); assay: Agonist activity at GPR40 receptor expressed in CHO cells by reporter gene assay; assay type: functional, cell-based
[2] = target: T1, Free fatty acid receptor 1; assay: Agonist activity at GPR40 receptor; assay type: functional
[3] = Solubility at pH 7.4; assay type: physicochemical; conditions: buffer
[4] = Distribution coefficient, log D at pH 7.4; assay type: physicochemical; conditions: octanol/water

T1 sequence (O14842 whole entry): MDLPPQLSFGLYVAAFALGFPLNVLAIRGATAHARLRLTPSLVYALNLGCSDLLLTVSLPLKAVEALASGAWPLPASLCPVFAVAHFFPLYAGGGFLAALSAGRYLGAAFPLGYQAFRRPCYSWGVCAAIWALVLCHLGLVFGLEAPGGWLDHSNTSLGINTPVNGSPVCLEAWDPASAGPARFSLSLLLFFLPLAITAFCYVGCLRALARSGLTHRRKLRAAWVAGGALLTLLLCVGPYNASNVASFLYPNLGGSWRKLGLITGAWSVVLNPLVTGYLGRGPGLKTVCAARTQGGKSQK

| SMILES | %max [1] [%] | EC50 [2] [µM] | solubility [3] [µg/mL] | logD [4] |
| --- | --- | --- | --- | --- |
| O=C(O)Cc1ccc(NCc2cccc(Oc3ccccc3)c2)cc1 | 32 | 3.98 |  |  |
| CC(C(=O)O)c1ccc(NCc2ccc(-c3ccccc3)cc2)cc1 (stereo unspecified) | 21 |  |  |  |
| O=C(O)CCc1ccc(NCc2ncc[nH]2)cc1 | 4 |  |  |  |
| O=C(O)CCc1ccc(NCc2ccc3c(c2)OCO3)cc1 | 141 |  |  |  |
| CC(C(=O)O)c1ccc(NCc2cccc(Oc3ccccc3)c2)cc1 (stereo unspecified) | 34 | 16.6 |  |  |
| O=C(O)CCc1cccc(NCc2ccc(-c3ccccc3)cc2)c1 | 160 | 0.501 |  |  |
| O=C(O)CCCc1ccc(NCc2cccc(Oc3ccccc3)c2)cc1 | 74 | 3.16 |  |  |
| O=C(O)CCc1ccc(NCc2ccccc2Cl)cc1 | 122 | 3.98 |  |  |
| O=C(O)C1CC1c1ccc(NCc2cccc(Oc3ccccc3)c2)cc1 (stereo unspecified) | 74 | 0.0501 |  |  |
| CS(=O)(=O)Nc1cccc(CNc2ccc(CCC(=O)O)cc2)c1 | 9 |  |  |  |
| O=C(O)C1CC1c1ccc(NCc2ccc(-c3ccccc3)cc2)cc1 (stereo unspecified) | 80 | 0.0398 |  |  |
| O=C(O)CCc1ccc(NCc2ccc(Oc3ccccc3)cc2)cc1 | 139 | 0.195 |  |  |
| O=C(O)CCCc1ccc(NCc2ccc(-c3ccccc3)cc2)cc1 | 62 | 1.58 |  |  |
| O=C(O)CCc1ccc(NCc2ccc(Cl)s2)cc1 | 143 |  |  |  |
| O=C(O)Cc1ccc(NCc2ccc(-c3ccccc3)cc2)cc1 | 69 | 12.3 |  |  |
| O=C(O)CCc1ccc(NCc2cc(C(F)(F)F)cnc2Cl)cc1 | 112 | 5.01 |  |  |
| O=C(O)CCc1cccc(NCc2cccc(Oc3ccccc3)c2)c1 | 148 | 0.398 |  |  |

Second part, the compound after the results:

| %max [1] [%] | EC50 [2] [µM] | solubility [3] [µg/mL] | logD [4] | SMILES |
| --- | --- | --- | --- | --- |
| 159 | 1.26 |  |  | COc1ccc(CNc2ccc(CCC(=O)O)cc2)cc1 |
| 120 | 0.794 |  |  | O=C(O)CCc1ccc(NCc2cccc(Br)c2)cc1 |
| 123 | 0.794 |  |  | O=C(O)CCc1ccc(NCc2ccc3ccccc3c2)cc1 |
| 9 |  |  |  | O=C(O)CCc1ccc(NCc2ccc(C(=O)O)cc2)cc1 |
| 133 |  |  |  | O=C(O)CCc1ccc(NCc2ccc(C(F)(F)F)cc2)cc1 |
| 111 | 1 | 830 (≈ 2860 µM) | 0.98 | O=C(O)CCc1ccc(NCc2ccc(Cl)cc2)cc1 |
| 117 | 0.251 |  |  | O=C(O)CCc1ccc(NCc2ccc(Cl)c(Cl)c2)cc1 |
| 120 | 5.01 |  |  | O=C(O)CCc1ccc(NCc2cccc(F)c2)cc1 |
| 49 |  |  |  | N#Cc1ccc(CNc2ccc(CCC(=O)O)cc2)cc1 |
| 152 | 3.98 |  |  | Cc1ccc(CNc2ccc(CCC(=O)O)cc2)cc1 |
| 37 |  |  |  | O=C(O)CCc1ccc(NCc2ccc(O)cc2)cc1 |
| 4 |  |  |  | O=C(O)CCc1ccc(NCc2cccnc2)cc1 |
| 111 | 0.251 |  |  | O=C(O)CCc1ccc(NCc2ccc(-c3ccccc3)cc2)cc1 |
| 18 |  |  |  | NC(=O)c1cccc(CNc2ccc(CCC(=O)O)cc2)c1 |
| 144 | 7.94 |  |  | O=C(O)CCc1ccc(NCc2ccccc2)cc1 |
| 12 |  |  |  | CN(C)Cc1ccc(CNc2ccc(CCC(=O)O)cc2)cc1 |
